Source: patent US20260345485A1, “INTRATHECAL NANOPARTICLE DELIVERY FOR TREATMENT OF LEPTOMENINGEAL TUMORS WITH CORE-SHELL PARTICLES MADE OF HYPERBRANCHED POLYGLYCEROL AND POLYLACTIC ACID” (priority 2022, published 2026)
Read-outs that look alike come from different tables or passages of the source.

Key:
[1] = tolerability / maximum tolerated dose after intrathecal dosing
Description: To investigate toxicity, healthy female nude mice were first administered a specific dose of either free BMN-673 or BMN-NPs ranging from 0.03 mg/kg to 1.25 mg/kg. The mice were monitored for weight-loss or other signs of distress, and if the dose was well tolerated, 4 additional mice were dosed and monitored (n=5).
Toxicology studies were conducted in healthy female nude mice to characterize the safety of BMN-NPs in vivo. […] Increasing doses of either BMN-NP or free BMN-673 were administered to animals. Body weight loss and overall animal health were closely monitored.

[2] = hematological toxicity after intrathecal dosing; conditions: for blood cell counts: at MTD
Description: For hematological analysis, healthy nude mice (n=5 per time point) were administered either free BMN-673 (0.05 mg/kg) or BMN-NPs (0.5 mg/kg). At 3 days and 7 days post administration, 100 μL of blood was drawn via cardiac puncture using 15 μL EDTA-coated tubes. Levels of blood cell counts were measured using HEMA VET® HV950 multispecies hematologic analyzer (Drew Scientific, Oxford, CT, USA). Spleens and livers were harvested, fixed in formalin overnight, and H&E stained for histopathological evaluation.
To further test systemic toxicity differences between BMN-NPs and free BMN, red blood cells, white blood cells, and platelet levels were monitored in mice at day 3 and day 7 following two bi-weekly administrations at MTD (FIG. 5C).

DAOY cells [3] = test: DAOY intracisternal xenograft, single-dose treatment; format: in vivo, J:Nu mice; conditions: single dose 0.1 mg/kg
Description: Intra-cisternal transplantation of DAOY cells stably expressing luciferase was used for in vivo studies. A surgical catheter was implanted into their cisterna magna, and used for both cellular implantation and IT dosage during treatment. Mice were treated when their tumoral luminescence burden was detectable at […] BLI (unit), 7 days post-implantation. Mice were treated once, at the same dose level of 0.1 mg/kg with either BMN NPs or free BMN-673 (FIG. 7A).

DAOY cells [4] = test: DAOY intracisternal xenograft, twice-weekly treatment; conditions: 0.25 mg/kg BMN-NPs or 0.03 mg/kg free BMN-673
Description: DAOY cells (ATCC) were inoculated in 8 week J:Nu female mice at 10^5 cells suspended in 6 μL of DPBS. Tumor growth was followed by luminescence imaging twice a week, implantation. For luminescence imaging, mice were injected with 200 μL of a solution of D-Luciferin (15 mg/ml, Caliper Life Science) and imaged 5 minutes after injection using an IVIS200 in vivo imaging system (Xenogen, Caliper Life Science). An image showing light intensity (photons/second) was generated and the signal in each mouse was quantified using Living Image 4.0 software (Xenogen). On day 7 after tumor injection, all mice were randomized and treated with BMN-673 loaded NPs or free BMN-673 drug either once a week or bi-weekly for two weeks. Tumors were monitored for regression or progression with BLI, and left until neurological symptoms appeared or humane endpoint was reached (slow motion, >20% weight lose).
This study was repeated using twice-weekly dosing of 0.25 mg/kg of BMN-NPs or 0.03 mg/kg for free BMN-673 (FIGS. 7D-7F).

[5] = tested on: DAOY, D341, and D283 cells; test: drug combination synergy (Loewe model, CellTiter-Glo viability); format: cell-based
D341 cells = test: D341 xenograft with existing spinal metastasis; format: in vivo, mice
Description: In the D341 model, most mice develop spinal metastasis that is detectable by IVIS imaging within 7 days of inoculation, so it was tested whether BMN-NPs and free BMN were efficacious against existing spinal metastasis by starting treatment at day 7 in the presence of leptomeningeal metastasis. […] This therapy was improved with a temozolomide (TMZ) combination approach. The synergy between TMZ and PARPi is well documented in vitro, as PARP1 trapping sensitizes cells to the DNA methylation mechanism of TMZ, but in vivo, a reduction in the PARPi dose is necessary to prevent acute toxicity.

PARP1 = conditions: cited from earlier work
[6] = format: in vivo; conditions: i.v., after 20 minutes, tumor-bearing mice
Description: CNS retention of ^89Zr-DFO-NPs was assessed in tumor-bearing mice. A leptomeningeal metastatic medulloblastoma model was administered DAOY cells stably expressing luciferase by IT injection into the CM. […] Two mice were injected intravenously with Gd-DTPA, and imaged via MRI after 20 minutes.

[7] = tested on: medulloblastoma cell line D283; conditions: 1 micromolar Olaparib with radiation; cited from earlier work
[8] = tested on: breast, prostate and ovarian cancer; conditions: clinical trials; cited from earlier work
[9] = combined with BMN-673, across all cell lines

## Cn1ncnc1[C@H]1c2n[nH]c(=O)c3cc(F)cc(c23)N[C@@H]1c1ccc(F)cc1 [BMN-673, talazoparib]
[1]; 0.03 mg/kg twice a week, IT
  body weight loss: less than 10%
[1]; 0.05 mg/kg, single IT dose
  body weight loss: less than 15%
[1]; IT
  dose above which toxicity-related symptoms developed (lethargy, labored breathing, death): greater than 0.06 mg/kg
[1]; mouse, in vivo
  LD50: 0.125 mg/kg
  MTD: 0.05 mg/kg
[1]; single IT dose, J:Nu mice
  lethal dose (lethal at any dose at or higher than): ≥ 0.06 mg/kg
[2]; 3 days post-treatment
  blood cell counts: a decrease in all leukocytes except for monocytes, and also showed a reduction in platelet count
[2]; by 7 days
  blood cell counts: did not show an improvement outside of basophil count
[2]; two bi-weekly administrations, 0.05 mg/kg/week free BMN, day 3 to day 7
  blood cell levels: progressive leukopenia and thrombocytopenia at day 3 which did not improve appreciably at day 7
DAOY cells [3]
  body weight loss versus BMN-NP group: lost significantly more weight than the BMN-NP group
  mice with tumor reduction benefit: one out five
DAOY cells [4]
  tumor response: tumors continued to progress with treatment of free drug
[5]; Loewe synergy model, with temozolomide
  synergy with TMZ (combinatorial index): high levels of synergy
[5]; incremental log-fold increases in BMN-673 in presence of TMZ
  cell viability compared to BMN-673 alone: decreased viability
D341 cells; four repeat doses, free BMN-673 at equitoxic dose, start day 7
  effect on cerebral and spinal tumor burden: no effect
D341 cells; in combination with temozolomide
  tolerability: not tolerated at even the lowest doses of BMN-673
PARP1
  PARP1 trapping: potent PARP1 trap

## O=P1(N(CCCl)CCCl)NCCCO1 (stereo not shown) [Cyclophosphamide]
[5]
  synergy with BMN-673: did not show consistent synergist action

## O=C(O)CN(CCN(CC(=O)O)CC(=O)O)CCN(CC(=O)O)CC(=O)O.[Gd+3] [Gd-DTPA]
[6]
  signal in the brain by MRI: no detectable Gd-DTPA signal in the brain

## CCc1c2c(nc3ccc(OC(=O)N4CCC(N5CCCCC5)CC4)cc13)-c1cc3c(c(=O)n1C2)COC(=O)[C@]3(O)CC [Irinotecan]
[5]; [9]
  synergy with BMN-673: did not show consistent synergist action

## O=NN(CCCl)C(=O)NC1CCCCC1 [Lomustine]
[5]; [9]
  synergy with BMN-673: did not show consistent synergist action

## O=C(c1cc(Cc2n[nH]c(=O)c3ccccc23)ccc1F)N1CCN(C(=O)C2CC2)CC1 [Olaparib, olaparib]
[7]
  DNA double stranded breaks: high levels of DSB
[8]
  anti-tumour effect and side effects: anti-tumour effect and side effects of grade 1 or 2

## CC[C@@]1(O)C(=O)OCc2c1cc1n(c2=O)Cc2cc3c(CN(C)C)c(O)ccc3nc2-1 [Topotecan]
[5]; [9]
  synergy with BMN-673: did not show consistent synergist action

## C[C@]1(c2nc3c(C(N)=O)cccc3[nH]2)CCCN1 [veliparib]
PARP1
  PARP1 trapping: relatively poor PARP1 trapping ability
